The source made the active and inactive calls.
Experiments:
[1] = target: T1, Apoptotic protease-activating factor 1 (Homo sapiens, UniProt O14727); format: functional
T1 sequence (O14727 whole entry): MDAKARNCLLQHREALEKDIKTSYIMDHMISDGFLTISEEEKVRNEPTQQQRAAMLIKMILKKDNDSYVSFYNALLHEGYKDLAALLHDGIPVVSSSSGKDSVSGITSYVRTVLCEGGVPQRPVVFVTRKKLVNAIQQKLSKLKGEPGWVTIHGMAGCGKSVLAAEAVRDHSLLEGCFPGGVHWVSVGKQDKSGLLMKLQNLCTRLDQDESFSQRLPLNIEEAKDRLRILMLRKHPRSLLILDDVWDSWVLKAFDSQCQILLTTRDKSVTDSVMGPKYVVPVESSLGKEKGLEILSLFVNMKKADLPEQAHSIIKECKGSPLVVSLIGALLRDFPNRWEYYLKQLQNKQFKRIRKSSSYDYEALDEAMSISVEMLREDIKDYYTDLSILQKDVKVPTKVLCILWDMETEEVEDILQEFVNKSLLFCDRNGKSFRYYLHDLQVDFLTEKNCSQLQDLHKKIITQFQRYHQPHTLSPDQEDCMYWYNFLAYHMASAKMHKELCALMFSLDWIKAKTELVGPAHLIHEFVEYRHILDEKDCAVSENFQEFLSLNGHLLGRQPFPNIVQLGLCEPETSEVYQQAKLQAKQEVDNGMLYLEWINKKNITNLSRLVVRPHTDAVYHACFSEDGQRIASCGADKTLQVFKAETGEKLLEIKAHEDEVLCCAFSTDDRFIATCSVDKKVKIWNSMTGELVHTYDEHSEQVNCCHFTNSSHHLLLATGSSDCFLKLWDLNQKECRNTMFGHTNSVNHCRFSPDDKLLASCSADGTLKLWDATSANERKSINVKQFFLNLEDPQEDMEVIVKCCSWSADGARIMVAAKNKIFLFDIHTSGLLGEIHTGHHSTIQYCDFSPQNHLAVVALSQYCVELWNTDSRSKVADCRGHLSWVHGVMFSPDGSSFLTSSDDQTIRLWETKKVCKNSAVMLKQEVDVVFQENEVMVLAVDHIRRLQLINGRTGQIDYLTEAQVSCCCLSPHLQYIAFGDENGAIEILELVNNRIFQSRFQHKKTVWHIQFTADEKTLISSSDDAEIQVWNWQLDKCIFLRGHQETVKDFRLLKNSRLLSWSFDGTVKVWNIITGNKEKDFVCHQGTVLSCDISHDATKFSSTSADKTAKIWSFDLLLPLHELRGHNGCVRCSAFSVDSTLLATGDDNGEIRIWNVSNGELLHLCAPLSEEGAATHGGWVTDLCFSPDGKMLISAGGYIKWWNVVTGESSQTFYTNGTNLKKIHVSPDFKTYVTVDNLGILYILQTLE

[2] = system: INS1; assay: INS-1E survival protection against cytokine death – cell-based, luminescence, retest, dose response (AID 449756); format: functional; details: Rattus norvegicus;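 also: cell death triggered by IL-1 beta plus TNF-alpha plus IFN-gamma mixture; protective hits raise ATP signal compared with cytokine alone wells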
[3] = target: Induced myeloid leukemia cell differentiation protein Mcl-1 (Homo sapiens, UniProt Q07820); format: functional
[4] = luciferase reporter signal suppression in cells – H4 neuroglioma cells, luminescence, dose response (AID 1990); format: functional, cell-based
[5] = Luminescence Cell-Based Dose Response HTS to Identify Inhibitors of 5'UTR Stem-Loop Driven Prion Protein mRNA Translation in H4 Neuroglioblastoma Cells. [Related pubchem assays: 1827 (Project Summary), 1813 (Primary HTS)]; format: functional
[6] = alpha-synuclein stem-loop luciferase translation blockers – H4 neuroglioma cells, luminescence, confirmation (AID 1988); format: functional, cell-based
[7] = Trypanosoma cruzi growth suppression in host cells – NIH3T3 host cells, beta-gal luminescence, confirmation (AID 2044); format: functional, cell-based;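 also: intracellular parasites grown in NIH/3T3 mouse fibroblasts as host cells; luminescent beta-galactosidase reporter signal from transgenic T. cruzi replicating inside host cells; inhibitors lower the luminescence signal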
[8] = NIH3T3 cell viability loss – ATP luminescence, mouse fibroblasts, counter-screen, dose response (AID 2010); format: functional, cell-based;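 also: cells exposed to compound for about 90 hours before reading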
[9] = target: Nonstructural protein 1 (Influenza A virus, UniProt Q194T2); format: functional, Influenza A virus (A/California/07/2009(H1N1))
[10] = target: T2, DNA repair protein RAD52 homolog (Homo sapiens, UniProt P43351); format: functional, biochemical
T2 sequence (P43351 whole entry): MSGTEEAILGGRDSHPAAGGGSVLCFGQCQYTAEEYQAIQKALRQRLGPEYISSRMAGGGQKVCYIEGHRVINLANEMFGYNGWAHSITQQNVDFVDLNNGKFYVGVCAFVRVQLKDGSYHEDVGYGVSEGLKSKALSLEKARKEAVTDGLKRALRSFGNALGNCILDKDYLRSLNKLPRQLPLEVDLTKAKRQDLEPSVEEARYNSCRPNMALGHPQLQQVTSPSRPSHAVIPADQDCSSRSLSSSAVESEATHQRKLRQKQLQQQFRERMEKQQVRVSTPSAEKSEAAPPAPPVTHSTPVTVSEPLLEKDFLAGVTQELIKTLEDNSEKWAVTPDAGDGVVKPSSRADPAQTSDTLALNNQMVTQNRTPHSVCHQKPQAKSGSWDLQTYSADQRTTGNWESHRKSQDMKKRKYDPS

[11] = viability of uninfected HEp-2 cells – cell-based, HTS, cytotoxicity control for RSV inhibitor project, dose response (AID 2410); format: functional; details: human respiratory syncytial virus
[12] = A cytotoxicity screen of small molecule inhibitors of the PhoP region in Salmonella typhi identified in the primary screen. [Related pubchem assays: 1850, 1864, 1985 ]; format: functional
[13] = cells
[14] = target: Troponin, cardiac muscle (Homo sapiens, UniProt P19429+P45379+P63316); assay: Fluorescence-based biochemical high throughput dose response assay for activators of the calcium sensitivity of cardiac Regulated Thin Filaments (RTF). [Related pubchem assays (depositor defined):AID493008, AID493018, AID504382, AID504383]; format: protein-complex assay
[15] = microbe, parasite or virus in culture; format: functional; details: Mycobacterium tuberculosis
[16] = viability of PTEN-deleted HCT116 cells – cell-based, HCT116 PTEN knockout, dose response (AID 1047); format: functional;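 also: HCT116 colon tumor cells with PTEN knocked out; cells exposed to compound for 60 hours before readout; potency for loss of cell viability measured by luminescence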
[17] = viability of HCT116 lacking mutant beta-catenin – cell-based, human colon tumor, dose response (AID 1045); format: functional;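 also: HCT116 colon tumor cells with beta catenin knocked out; cells exposed to compound for 60 hours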
[18] = THP-1 cell cytotoxicity, dose response, cytotoxicity control for non-replicating M. tuberculosis project (AID 489025); format: functional
[19] = Luminescence Cell-Based Dose Retest to Confirm Inhibitors of Cancer Stem Cells. [Related pubchem assays (depositor defined):AID2717, AID2721]; format: functional; details: Homo sapiens
[20] = HepG2 cell cytotoxicity, dose response, cytotoxicity control for non-replicating M. tuberculosis project (AID 489018); format: functional; details: Mycobacterium tuberculosis
[21] = Vero E6 cell cytotoxicity, dose response, cytotoxicity control for non-replicating M. tuberculosis project, secondary assay (AID 492998); format: functional, VeroE6; details: Vero C1008
[22] = cells; format: functional
[23] = target: Cytochrome P450 3A4 (Homo sapiens, UniProt P08684); details: Potency;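 also: confirmatory qHTS run detecting inhibitors and substrates of CYP3A4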
[24] = target: Large T antigen (Simian virus 40, UniProt P03070); format: functional, Betapolyomavirus macacae;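 also: Confirmatory-stage PubChem screen for compounds that inhibit SV40 T antigen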
[25] = target: T3, RNA-binding protein pos-1 (Caenorhabditis elegans, UniProt G5EF15); assay: disruptors of C. elegans POS-1 RNA interaction – biochemical, fluorescence polarization, dose response (AID 1964);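 also: purified POS-1 fused to maltose binding protein made in E. coli; potency of compounds blocking POS-1 binding to fluorescent RNA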
T3 sequence (G5EF15 whole entry): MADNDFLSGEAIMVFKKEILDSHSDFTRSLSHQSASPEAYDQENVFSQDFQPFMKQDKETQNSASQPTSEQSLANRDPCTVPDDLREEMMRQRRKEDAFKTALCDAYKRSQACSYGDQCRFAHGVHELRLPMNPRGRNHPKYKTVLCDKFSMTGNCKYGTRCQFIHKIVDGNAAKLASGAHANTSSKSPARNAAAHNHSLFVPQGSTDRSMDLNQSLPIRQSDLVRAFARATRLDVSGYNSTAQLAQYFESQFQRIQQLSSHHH

[26] = target: T4, Zinc finger protein mex-5 (Caenorhabditis elegans, UniProt Q9XUB2); assay: potency of MEX-5 RNA-binding blockers – biochemical, C. elegans, fluorescence polarization, dose response (AID 1960)
T4 sequence (Q9XUB2 whole entry): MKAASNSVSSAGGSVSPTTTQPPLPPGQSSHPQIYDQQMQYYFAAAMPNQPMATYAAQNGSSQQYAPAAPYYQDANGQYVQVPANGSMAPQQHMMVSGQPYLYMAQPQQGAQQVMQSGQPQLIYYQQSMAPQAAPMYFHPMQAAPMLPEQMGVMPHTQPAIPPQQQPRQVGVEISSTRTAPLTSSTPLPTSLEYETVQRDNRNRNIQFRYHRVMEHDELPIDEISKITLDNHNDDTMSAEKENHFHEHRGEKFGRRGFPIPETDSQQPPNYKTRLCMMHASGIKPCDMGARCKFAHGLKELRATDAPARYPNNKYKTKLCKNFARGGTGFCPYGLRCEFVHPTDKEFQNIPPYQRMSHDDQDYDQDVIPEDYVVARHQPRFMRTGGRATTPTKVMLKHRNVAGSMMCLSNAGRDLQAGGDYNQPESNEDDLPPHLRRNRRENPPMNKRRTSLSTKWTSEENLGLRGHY

[27] = target: T5, Carboxy-terminal domain RNA polymerase II polypeptide A small phosphatase 1 (Homo sapiens, UniProt Q9GZU7); assay: CTDSP1 inhibitors, concentration-response, biochemical, absorbance readout, ultra-high-throughput screen actives (AID 540297); format: functional
T5 sequence (Q9GZU7 whole entry): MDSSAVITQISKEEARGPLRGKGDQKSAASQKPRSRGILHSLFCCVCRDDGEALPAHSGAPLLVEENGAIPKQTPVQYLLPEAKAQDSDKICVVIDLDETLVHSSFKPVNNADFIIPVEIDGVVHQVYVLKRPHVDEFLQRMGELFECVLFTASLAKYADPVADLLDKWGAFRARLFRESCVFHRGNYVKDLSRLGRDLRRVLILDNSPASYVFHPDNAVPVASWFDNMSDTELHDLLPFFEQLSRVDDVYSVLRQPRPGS

[28] = P. falciparum Dd2 growth inhibitors, dose response, SYBR Green, cherry-picked samples (AID 1159567); format: functional, cell-based
[29] = toxicity to human hepatoma HepG2 cells – cell-based, cherry-picked samples, cytotoxicity control, dose response (AID 1159577); format: functional

Sequence of Cytochrome P450 3A4 (P08684 whole entry): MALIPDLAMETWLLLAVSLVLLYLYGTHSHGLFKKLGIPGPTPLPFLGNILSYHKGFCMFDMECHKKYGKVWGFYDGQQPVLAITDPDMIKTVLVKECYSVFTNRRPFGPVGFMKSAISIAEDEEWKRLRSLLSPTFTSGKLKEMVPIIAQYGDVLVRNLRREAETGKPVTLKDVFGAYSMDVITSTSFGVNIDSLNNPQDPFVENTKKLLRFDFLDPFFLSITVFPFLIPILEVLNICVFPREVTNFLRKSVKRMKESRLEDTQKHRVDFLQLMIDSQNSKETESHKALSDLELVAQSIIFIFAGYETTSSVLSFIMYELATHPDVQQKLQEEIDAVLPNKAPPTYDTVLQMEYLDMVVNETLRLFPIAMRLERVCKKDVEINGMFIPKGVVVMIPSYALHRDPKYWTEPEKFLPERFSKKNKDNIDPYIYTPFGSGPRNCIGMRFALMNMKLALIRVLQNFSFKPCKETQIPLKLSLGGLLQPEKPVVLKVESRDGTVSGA
Sequence of Induced myeloid leukemia cell differentiation protein Mcl-1 (Q07820 whole entry): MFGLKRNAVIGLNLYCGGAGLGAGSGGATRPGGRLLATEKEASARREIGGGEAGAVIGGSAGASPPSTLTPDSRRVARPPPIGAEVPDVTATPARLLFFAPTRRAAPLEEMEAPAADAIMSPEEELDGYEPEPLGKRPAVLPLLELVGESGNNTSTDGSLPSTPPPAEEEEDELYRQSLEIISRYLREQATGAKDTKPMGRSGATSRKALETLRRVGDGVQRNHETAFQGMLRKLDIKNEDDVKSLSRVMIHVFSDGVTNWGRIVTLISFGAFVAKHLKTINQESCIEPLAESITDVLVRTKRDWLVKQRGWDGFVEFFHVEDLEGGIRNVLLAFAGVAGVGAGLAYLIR
Sequence of Nonstructural protein 1 (Q194T2 whole entry): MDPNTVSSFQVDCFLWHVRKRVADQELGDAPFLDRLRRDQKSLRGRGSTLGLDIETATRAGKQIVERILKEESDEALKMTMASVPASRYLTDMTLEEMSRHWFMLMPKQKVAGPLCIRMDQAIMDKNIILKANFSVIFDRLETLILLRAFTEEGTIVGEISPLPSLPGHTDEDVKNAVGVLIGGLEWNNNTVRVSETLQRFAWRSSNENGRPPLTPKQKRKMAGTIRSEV
Sequence of Large T antigen (P03070 whole entry, the tested form may be a part): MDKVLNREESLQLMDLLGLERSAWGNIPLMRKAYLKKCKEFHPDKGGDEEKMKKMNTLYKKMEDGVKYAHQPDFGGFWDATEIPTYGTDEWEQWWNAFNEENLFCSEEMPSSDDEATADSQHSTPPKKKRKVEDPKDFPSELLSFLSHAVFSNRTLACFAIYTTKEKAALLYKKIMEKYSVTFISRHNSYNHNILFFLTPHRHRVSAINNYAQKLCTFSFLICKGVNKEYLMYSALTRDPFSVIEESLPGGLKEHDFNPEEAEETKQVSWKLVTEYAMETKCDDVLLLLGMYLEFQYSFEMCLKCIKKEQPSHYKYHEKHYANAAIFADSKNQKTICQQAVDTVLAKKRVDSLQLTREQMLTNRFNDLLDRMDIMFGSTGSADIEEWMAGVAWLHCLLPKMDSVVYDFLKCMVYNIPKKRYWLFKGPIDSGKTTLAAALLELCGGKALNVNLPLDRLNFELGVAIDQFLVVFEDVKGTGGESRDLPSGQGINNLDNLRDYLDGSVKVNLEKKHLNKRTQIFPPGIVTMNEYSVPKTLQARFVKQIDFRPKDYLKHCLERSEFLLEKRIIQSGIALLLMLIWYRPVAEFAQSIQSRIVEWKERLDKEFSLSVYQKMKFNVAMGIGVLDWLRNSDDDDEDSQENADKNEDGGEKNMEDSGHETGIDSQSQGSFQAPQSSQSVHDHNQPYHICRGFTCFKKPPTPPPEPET

CCCOc1cc(NCc2ccccc2)c2ncn(C(C)C)c2c1
IC50 [1]: 5.67 µM (active)
AC50 [2]: 8.46 µM (active)

Cc1sc(NC(=O)c2sc3nc4c(C)cccc4cc3c2N)c(C#N)c1C
IC50 [3]: 1.44 µM (active)

COCc1cc(CN2CCCC2)c(O)c2ncccc12
EC50 [4]: 11.4 µM (active)
EC50 [5]: 6.21 µM (active)
EC50 [6]: 8.4 µM (active)
EC50 [7]: 3.07 µM (active)
EC50 [8]: 4.17 µM (active)
IC50 [9]: 2.31 µM (active)

COc1cccc(OCC(O)CN2CCC(CN3C(=O)c4cccc5cccc(c45)C3=O)CC2)c1 (stereo unspecified)
EC50 [7]: 2.83 µM (active)
EC50 [8]: 9.64 µM (active)
AC50 [10]: 10.6 µM (active)

COC(=O)C1=C(C)N(Cc2ccco2)C(=O)N[C@H]1c1ccc(Br)cc1
CC50 [11]: 42.9 µM (active)
EC50 [12]: > 50 µM (active)
IC50 [13]: 3.12 µM (active)

O=C(Nc1ccc(Cl)c(Cl)c1)Nc1ccc([N+](=O)[O-])cn1
EC50 [14]: > 71.5 µM (inactive)

OC(CN1CCCC1)Cn1ccc2ccccc21 (stereo unspecified)
AC50 [10]: 16.1 µM (active)

c1cc2c3c(cccc3c1)NC1(CCC3(CC1)Nc1cccc4cccc(c14)N3)N2
CC50 [15]: 20 µM (active)
IC50 [1]: 7.06 µM (active)

COc1cc(CNC(C)(C)CO)cc(Br)c1OCc1ccc(Cl)cc1Cl
EC50 [16]: 7.38 µM (active)
EC50 [17]: 7.94 µM (active)
CC50 [18]: 19.4 µM (active)
AC50 [19]: 5.33 µM (active)
CC50 [20]: 12.5 µM (active)
CC50 [21]: 13.8 µM (active)
IC50 [22]: 16.7 µM (active)
AC50 [10]: 18.5 µM (active)

N#CC(Cl)Cl
AC50 [23]: 31.6 µM (inconclusive)

CC(C)CCC(C)N/C=C1/C(=O)N(Cc2ccccc2)C(=O)c2ccccc21 (stereo unspecified)
IC50 [1]: 7.34 µM (active)

CCOc1ccc(NCc2cccn2-c2nnc(N3CCC(C(=O)NCCCN4CCCCC4C)CC3)s2)cc1 (stereo unspecified)
IC50 [24]: 19.5 µM (active)
AC50 [10]: 19.6 µM (active)

COC(=O)CNC(=O)C1(C)C=CC2(CCCCC2)N1C(=O)OC (stereo unspecified)
AC50 [23]: 31.6 µM (inconclusive)

CN1C[C@@H](CO)C=C2c3cccc4[nH]cc(c34)CC21 (stereo partly specified)
AC50 [23]: 31.6 µM (inconclusive)

O=[N+]([O-])c1cccc(NNS(=O)(=O)c2ccccc2F)c1
EC50 [12]: > 50 µM (active)

COc1cc(CNCCCN2CCOCC2)c(Br)cc1OCC(=O)Nc1ccccc1C
EC50 [12]: > 50 µM (active)

CC1CCN(C2=C(NS(=O)(=O)c3ccccc3)C(=O)c3ccccc3C2=O)CC1
IC50 [9]: 11.3 µM (active)

Cc1ccc(/C=C2\Oc3c(ccc(O)c3CN3CCN(CCO)CC3)C2=O)cc1
EC50 [25]: 36 µM (active)
EC50 [26]: 73.9 µM (active)
EC50 [14]: 19.5 µM (inactive)

CCOC(=O)N1CCC(=NNc2ccnc3cc(Cl)ccc23)CC1
EC50 [12]: > 50 µM (active)

CCCCCCC1=Cc2cc(OC)c(OC)cc2C(CC(=O)/C=C/OC)O1 (stereo unspecified)
AC50 [23]: 5.01 µM (inconclusive)

Cc1ccc(NC(=O)COc2ccc(/C=N/NC(=O)CSCc3ccccc3)cc2)cc1
EC50 [14]: > 71.5 µM (inactive)
IC50 [27]: 9.82 µM (active)

Oc1ccc(N=Nc2cccc(Cl)c2)cc1/C=N/c1ccc(N2CCOCC2)cc1
IC50 [3]: 5.14 µM (not active)

Clc1cccc(/C=N\Nc2nccs2)c1
EC50 [12]: > 50 µM (active)
IC50 [22]: 12.7 µM (active)

C[C@@H]1CN([C@@H](C)CO)C(=O)Cc2cc(NC(=O)Nc3ccccc3)ccc2O[C@H]1CN(C)Cc1ccc(-c2ccccc2)cc1
AC50 [28]: 1.87 µM (active)
AC50 [29]: 18.5 µM (active)

C[C@H]1CN([C@@H](C)CO)S(=O)(=O)c2ccc(C#Cc3ccc(F)cc3)cc2O[C@@H]1CN(C)C(=O)NC1CCCC1
AC50 [28]: 6.21 µM (active)
AC50 [29]: 25.6 µM (active)

COc1ccc(-c2oc3ccccc3c(=O)c2O)cc1
AC50 [23]: 3.98 µM (inconclusive)

— ChEMBL document CHEMBL1201862, “PubChem BioAssay data set” (2004)
